Assay results reported in patent EP4501917A1, “3,4-DIHYDROQUINOXALINE-2-CARBOXIMIDE DERIVATIVE COMPOUND AND PHARMACEUTICAL COMPOSITION COMPRISING SAME FOR PREVENTING OR TREATING CANCER DISEASE” (Daegu-Gyeongbuk Medical Innovation Foundation, priority 2022, dated 2023).

Biological target: T1, HDAC7 (Homo sapiens, UniProt Q8WUI4)
T1 construct: purchased BPS bioscience
T1 sequence (Q8WUI4 1-952): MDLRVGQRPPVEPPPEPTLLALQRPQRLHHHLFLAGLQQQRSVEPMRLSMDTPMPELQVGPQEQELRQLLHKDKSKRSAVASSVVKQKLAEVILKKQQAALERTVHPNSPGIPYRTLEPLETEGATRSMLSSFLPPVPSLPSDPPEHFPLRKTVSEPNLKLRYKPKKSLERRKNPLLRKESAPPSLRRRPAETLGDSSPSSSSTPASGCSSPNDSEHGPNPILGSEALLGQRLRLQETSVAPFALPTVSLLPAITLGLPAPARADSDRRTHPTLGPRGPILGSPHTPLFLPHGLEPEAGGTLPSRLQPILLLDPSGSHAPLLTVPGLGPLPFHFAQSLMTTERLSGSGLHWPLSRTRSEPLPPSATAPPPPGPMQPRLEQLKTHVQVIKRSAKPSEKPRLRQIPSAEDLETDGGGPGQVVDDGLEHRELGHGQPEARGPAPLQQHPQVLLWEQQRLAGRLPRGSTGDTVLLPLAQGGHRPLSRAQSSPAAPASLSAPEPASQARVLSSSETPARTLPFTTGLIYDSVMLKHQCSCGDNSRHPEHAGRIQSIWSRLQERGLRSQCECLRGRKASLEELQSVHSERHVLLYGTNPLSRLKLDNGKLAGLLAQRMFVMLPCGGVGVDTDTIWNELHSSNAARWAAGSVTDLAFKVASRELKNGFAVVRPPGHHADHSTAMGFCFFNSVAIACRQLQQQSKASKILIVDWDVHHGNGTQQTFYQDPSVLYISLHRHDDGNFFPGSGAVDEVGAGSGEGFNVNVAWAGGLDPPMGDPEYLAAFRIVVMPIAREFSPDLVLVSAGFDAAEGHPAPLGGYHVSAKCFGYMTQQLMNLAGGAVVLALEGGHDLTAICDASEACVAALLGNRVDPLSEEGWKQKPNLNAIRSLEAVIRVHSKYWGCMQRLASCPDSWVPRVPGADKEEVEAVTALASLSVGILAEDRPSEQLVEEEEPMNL
Test: Selective HDAC inhibition, HDAC Fluorogenic assay kit
Type: biochemical
Conditions: final concentration 10 µM; HDAC substrate 2A 200 µM; positive control (1% DMSO) set to 100; read-out: HDAC7 enzyme activity (%)
Description: For analysis, HDAC substrate 3 was diluted in buffer to a concentration of 200 µM and used in HDAC 1, 2, 3, 6, and 10 assays, HDAC substrate 2A was diluted in buffer to a concentration of 200 µM and used in HDAC 4, 7, 9, and 11 assays, HDAC substrate 2A was diluted in buffer to a concentration of 20 µM and used in HDAC 8 assays. For the HDAC 11 assay, a dedicated buffer included in the kit was used separately, and the same buffer was used for the remaining assays. The compound of the Example was diluted to 1 mM (1% DMSO concentration) using DMSO to obtain a final concentration of 10 µM, and prepared by diluting 1/10 with assay buffer. In a 96-well black round-bottom plate, 5 µL of the diluted compound of the Example, 5 µL of the diluted HDAC substrate, 5 µL of BSA (1 mg/ml), 5 µL of the HDAC enzyme diluted to the appropriate concentration, and 30 µL of assay buffer were added, and the enzyme reaction was performed at 37°C for 30 minutes. […] Afterwards, 50 µL of 2X HDAC developer was added to each well. After reacting for 15 minutes at room temperature, the fluorescence values at excitation wavelengths of 350-380 nm and emission wavelengths of 440-460 nm were measured using a microplate reader (Synergy Neo).

Compound: Cc1cc2nc(C(=O)NCCc3c[nH]c4ccc(O)cc34)c(=O)n(C[C@H](O)[C@H](O)[C@H](O)CO)c2cc1C [Example 27, N-(2-(5-hydroxy-1H-indol-3-yl)ethyl)-6,7-dimethyl-3-oxo-4-((2S,3S,4R)-2,3,4,5-tetrahydroxypentyl)-3,4-dihydroquinoxaline-2-carboxamide]
- remaining activity at 10 µM: 91.2%
